Test results reported in patent publication US20150374673A1, “Combination Therapy for the Treatment of Nosocomial Pneumonia” (priority 2013, published 2015).
Where “and” joins values, the source holds several entries; their conditions need not be identical. Equal values may be shown once. Read-outs that look alike come from different tables or passages of the source.

Tests used:
Penetration to human ELF = assay type: in vivo; conditions: epithelial lining fluid (ELF)
P. aeruginosa [1] = experiment: Neutropenic CD-1 mice with experimental pneumonia (lung infection), exposure response of ceftazidime q2h and avibactam q2h or q8h; assay type: in vivo, Pseudomonas aeruginosa; conditions: for % fT > CT1 q2 / % fT > CT1 q8 / TDD AVI q2h / TDD AVI q8h / log TDD AVI q2h / log TDD AVI q8h: Dose CAZ 16 mg/kg q2h; for % fT > CT1 q2 / % fT > CT1 q8: CT 1 mg/L; for TDD AVI q2h / TDD AVI q8h / log TDD AVI q2h / log TDD AVI q8h: static effect; for factor by which daily dose for static effect was lower q2h than q8h: with ceftazidime q2h
Protocol: CD-1 neutropenic mice were infected with approx. 10^6 cfu in the lung by instillation through the nares under light anaesthesia. […] For avibactam the % time of the dosing interval above a virtual in vivo threshold concentration, CT, % fT>CT, were calculated (CT of 0.25, 1 and 4 mg/L).
Outbred female CD-1 mice (Charles River, Netherlands), 4 to 5 weeks old, weighing 20 to 25 g were used in the experiments. Granulocytopenia was induced by two doses of cyclophosphamide s.c. four days (150 mg/kg) and one day (100 mg/kg) before the infection experiment.
Neutropenic mice were infected with one P. aeruginosa strain per animal. 0.05 mL of bacterial suspension consisting of approximately 10^5-10^6 bacteria was inoculated intra-nasally with a syringe under light anaesthesia with isoflurane. […] All dosing regimens were performed in at least two animals. At t=0 h, 2 mice were humanely sacrificed to determine the initial inoculum just before starting treatment. All other animals were sacrificed at t=24 h unless the welfare of the animals indicated earlier termination was necessary, following animal welfare regulations. Lungs were taken and moved to a pre-cooled 10-mL plastic tube (Transport Tube, Omnilabo, NL) containing 2 mL phosphate buffered saline (PBS; NaCl 8.00 g/L, Na2HPO4*2 H2O 1.44 g/L, KH2PO4 0.26 g/L, pH 7.2-7.4). Subsequently lungs were grounded using an Ultra-Turrax (IKA Labortechnik, Germany). A tenfold dilution series was prepared and 3×10 μL plated (Chromagar, Biomerieux, NL) per dilution. The following day, colonies were counted and the number of cfu per lung calculated.
This regimen was chosen because of the sensitivity to changes in effects of avibactam. The amount of avibactam administered varied in frequency and dose. […] The drug ? effect was determined as the difference between the log10 cfu values at t=24 h and t=0 h (mean value of 2 mice) expressed as dcfu. Free drug concentrations were used in all calculations. […] For avibactam % fT>CT, the % time of the dosing interval above threshold concentration CT were calculated for CT of 0.25, 1 and 4 mg/L. The CT values were chosen based on the activity of avibactam in vitro, 4 mg/L being used in susceptibility testing, but lower concentrations also being active as determined in in vitro checkerboard studies.

P. aeruginosa [2] = experiment: Initial MIC, microbroth dilution (CLSI), avibactam 4 mg/L; assay type: cell-based; conditions: Pseudomonas aeruginosa
Protocol: (§1) All MIC determinations including those performed in the checkerboard assay were done in cation-adjusted Mueller-Hinton broth (purchased from Becton Dickinson, Oxford UK).
(§2) Initial MIC data were determined by microbroth dilution methods as recommended by CLSI (2012b). Checkerboards were made in accordance with the method given by Pillai et. al., ? Antimicrobial Combinations in Antibiotics, LABORATORY MEDICINE (Lorian Ed., 3rd Ed. (2003)) p. 365-440 as per standard microbroth dilution tests but with agents in combination. […] A final avibactam concentration of 4 mg/L was used throughout the study. Antibacterial agents were combined into microtitre plates using the Evolution III liquid handling system.

K. pneumoniae = experiment: as above; assay type: cell-based; conditions: Klebsiella pneumoniae
Protocol: as §1, §2

[3] = Serum and ELF pharmacokinetics of ceftazidime regimens (human simulated and directed ELF fT>MIC) in infected mice; assay type: in vivo, female ICR mice; conditions: MICs of 32 μg/mL; ceftazidime directed ELF fT>MIC regimen
Protocol: Confirmatory pharmacokinetic studies were undertaken in infected mice and pharmacodynamic analyses and an assessment of ELF fT>MIC was made from the resulting concentration-time profile.
It has been observed in surveillance studies that the MIC90 for ceftazidime-avibactam against P. aeruginosa is 8 μg/mL (10-12). Given this, there are few isolates with higher MICs and the number that would grow within the murine lung infection model is even less. […] Doses of the previous humanized regimen described above were […] throughout the dosing period and further pharmacokinetic studies were performed. […] Mice were euthanized and serum and BAL samples were collected, as described above, at predetermined times.

Gram-positive isolates = experiment: MIC alone compared with MIC in presence of Cmax and 0.5×Cmax of colistin, all Gram-positive isolates; assay type: cell-based; conditions: with Cmax and 0.5×Cmax of colistin
Source text: A mean FICI was taken from each combination checkerboard and interpreted according to accepted criteria. […] Four highly-expressed AmpC, eight extended-spectrum beta-lactamase (ESBL) including two CTX-M-15 and five KPC producing Enterobacteriaceae and P. aeruginosa were included as well as representatives from each species with basal MICs. Three S. aureus and three E. faecalis were also included.

Gram-negative isolates = experiment: MIC alone compared with MIC in presence of Cmax and 0.5×Cmax of vancomycin and linezolid, all Gram-negative isolates; assay type: cell-based; conditions: with Cmax and 0.5×Cmax of vancomycin and linezolid
Protocol: as §2

P. aeruginosa [4] = experiment: MIC of the P. aeruginosa isolates used in the in vivo efficacy studies; assay type: cell-based; conditions: Pseudomonas aeruginosa
[5] = q2h and q8h, strains 11 and 18, lung

NC(=O)[C@@H]1CC[C@@H]2CN1C(=O)N2OS(=O)(=O)[O-].[Na+] [avibactam, [(2S,5R)-2-carbamoyl-7-oxo-1,6-diazabicyclo[3.2.1]octan-6-yl]hydrogen sulfate]
Kp (Penetration to human ELF): ~0.3 | efficacy by dosing frequency (P. aeruginosa [1]; avibactam q2h or q8h with ceftazidime q2h, lung): q2h regimen was more efficacious than the q8h regimen | effect on static % fT>MIC of ceftazidime (P. aeruginosa [1]; lung infection, all strains): reduced | % fT > CT1 q2, mean (P. aeruginosa [1]; mean of strains 18 and 11 (sd 2.7), lung infection, avibactam q2h): 21.6% | % fT > CT1 q8, mean (P. aeruginosa [1]; mean of strains 18 and 11 (sd 3.4), lung infection, avibactam q8h): 18.5% | overall mean % fT>CT 1 mg/L for static effect (P. aeruginosa [1]; [5]): 20.1% | range of % fT>CT 1 mg/L for static effect (P. aeruginosa [1]; [5]): 16.1-23.5 | % fT > CT1 q2 (P. aeruginosa [1]; strain 11, lung infection, avibactam q2h): 19.7% | % fT > CT1 q8 (P. aeruginosa [1]; strain 11, lung infection, avibactam q8h): 20.9% | TDD AVI q2h (P. aeruginosa [1]; strain 11, lung infection): 45.65 mg/kg | TDD AVI q8h (P. aeruginosa [1]; strain 11, lung infection): 463.29 mg/kg | log TDD AVI q2h (P. aeruginosa [1]; strain 11, lung infection): 1.66 mg/kg | log TDD AVI q8h (P. aeruginosa [1]; strain 11, lung infection): 2.67 mg/kg | factor by which daily dose for static effect was lower q2h than q8h (P. aeruginosa [1]; strain 11, lung): 2.7 | % fT > CT1 q2 (P. aeruginosa [1]; strain 18, lung infection, avibactam q2h): 23.5% | % fT > CT1 q8 (P. aeruginosa [1]; strain 18, lung infection, avibactam q8h): 16.1% | TDD AVI q2h (P. aeruginosa [1]; strain 18, lung infection): 56.65 mg/kg | TDD AVI q8h (P. aeruginosa [1]; strain 18, lung infection): 150.57 mg/kg | log TDD AVI q2h (P. aeruginosa [1]; strain 18, lung infection): 1.75 mg/kg | log TDD AVI q8h (P. aeruginosa [1]; strain 18, lung infection): 2.18 mg/kg | factor by which daily dose for static effect was lower q2h than q8h (P. aeruginosa [1]; strain 18, lung): 10.1 | % fT>CT 1 mg/L estimates for stasis over 24 h (P. aeruginosa [1]; the other two of strains 7, 5, 19 and 1 (not 1 and 19), ceftazidime q2h, lung): 21.4% and 19.4% | % fT>CT 1 mg/L estimates (P. aeruginosa [1]; two control strains, lung): 22.4% and 21.6%

CC(C)(O/N=C(\C(=O)N[C@@H]1C(=O)N2C(C(=O)[O-])=C(C[n+]3ccccc3)CS[C@H]12)c1csc(N)n1)C(=O)O [ceftazidime, (6R,7R)-7-[[(2Z)-2-(2-amino-1,3-thiazol-4-yl)-2-(1-hydroxy-2-methyl-1-oxopropan-2-yl)oxyiminoacetyl]amino]-8-oxo-3-(pyridin-1-ium-1-ylmethyl)-5-thia-1-azabicyclo[4.2.0]oct-2-ene-2-carboxylate pentahydrate]
MIC (P. aeruginosa [2]; isolate 16 P. aeruginosa Basal MICs, read-out: MIC): 1 µg/mL | MIC (P. aeruginosa [2]; isolate 17 P. aeruginosa Derepressed AmpC, read-out: MIC): 8 µg/mL | MIC (P. aeruginosa [2]; isolate 18 P. aeruginosa Derepressed AmpC, read-out: MIC): 64 µg/mL | MIC (P. aeruginosa [2]; isolate 19 P. aeruginosa PER, read-out: MIC): 128 µg/mL | MIC (P. aeruginosa [2]; isolate 20 P. aeruginosa KPC-2): 128 µg/mL | MIC (P. aeruginosa [2]; isolate 21 P. aeruginosa KPC-2, read-out: MIC): 64 µg/mL | MIC (K. pneumoniae; isolate 9 K. pneumoniae Basal MICs, read-out: MIC): 0.12 µg/mL | MIC (K. pneumoniae; isolate 10 K. pneumoniae TEM-4, read-out: MIC): 32 µg/mL | MIC (K. pneumoniae; isolate 11 K. pneumoniae CTX-M-15, read-out: MIC): 32 µg/mL | MIC (K. pneumoniae; isolate 12 K. pneumoniae SHV-12, read-out: MIC): 64 µg/mL | MIC (K. pneumoniae; isolate 13 K. pneumoniae KPC-3): 128 µg/mL | MIC (K. pneumoniae; isolate 14 K. pneumoniae KPC-3, read-out: MIC): 16 µg/mL | MIC (K. pneumoniae; isolate 15 K. pneumoniae KPC-2, read-out: MIC): 64 µg/mL | ELF fT>MIC [3]: 12% | MIC alone and in combination (Gram-positive isolates): remained within one doubling dilution in all cases | MIC alone and in combination (Gram-negative isolates): remained within one doubling dilution in all cases | MIC (P. aeruginosa [4]; P. aeruginosa PSA 1-25): 128 µg/mL | MIC (P. aeruginosa [4]; P. aeruginosa PSA 1-29): 32 µg/mL | MIC (P. aeruginosa [4]; P. aeruginosa PSA 2-69): 64 µg/mL | MIC (P. aeruginosa [4]; P. aeruginosa PSA 3-9): > 128 µg/mL | MIC (P. aeruginosa [4]; P. aeruginosa PSA 4-32): 32 µg/mL | MIC (P. aeruginosa [4]; P. aeruginosa PSA 4-36): 64 µg/mL | MIC (P. aeruginosa [4]; P. aeruginosa PSA 4-39): 32 µg/mL | MIC (P. aeruginosa [4]; P. aeruginosa PSA 4-84): 64 µg/mL | MIC (P. aeruginosa [4]; P. aeruginosa PSA 7-6): 128 µg/mL | MIC (P. aeruginosa [4]; P. aeruginosa PSA 8-16): 64 µg/mL | MIC (P. aeruginosa [4]; P. aeruginosa PSA 11-54): 32 µg/mL | MIC (P. aeruginosa [4]; P. aeruginosa PSA 14-28): 128 µg/mL | MIC (P. aeruginosa [4]; P. aeruginosa PSA 22): 64 µg/mL | MIC (P. aeruginosa [4]; P. aeruginosa PSA 24-2): 32 µg/mL | MIC (P. aeruginosa [4]; P. aeruginosa PSA 28-19): 128 µg/mL | MIC (P. aeruginosa [4]; P. aeruginosa PSA 37-8): 64 µg/mL | MIC (P. aeruginosa [4]; P. aeruginosa PSA 856): 8 µg/mL | MIC (P. aeruginosa [4]; P. aeruginosa PSA 968): 32 µg/mL | MIC (P. aeruginosa [4]; P. aeruginosa PSA 971): 16 µg/mL | MIC (P. aeruginosa [4]; P. aeruginosa PSA 1382): 128 µg/mL | MIC (P. aeruginosa [4]; P. aeruginosa PSA 1383): 64 µg/mL | MIC (P. aeruginosa [4]; P. aeruginosa PSA 1384): 64 µg/mL | MIC (P. aeruginosa [4]; P. aeruginosa PSA 1386): 128 µg/mL | MIC (P. aeruginosa [4]; P. aeruginosa PSA 1387): 32 µg/mL | MIC (P. aeruginosa [4]; P. aeruginosa PSA 1388): 128 µg/mL | MIC (P. aeruginosa [4]; P. aeruginosa PSA 1389): 64 µg/mL | MIC (P. aeruginosa [4]; P. aeruginosa PSA 1391): 128 µg/mL | MIC (P. aeruginosa [4]; P. aeruginosa PSA 1394): 64 µg/mL
